Laboratory results as given in PMC12384008, “Assessment of Biological Activity of Low Molecular Weight 1,4-Benzoquinone Derivatives” (Biomolecules, 2025).
Several values for one entry are separate records, joined by “and”; a condition that tells them apart may be missing. Equal entries are not always repeated. Where two headings read alike, the source gives them in different places.

Legend:
[1] = target: T1, purified native human BChE (Homo sapiens, UniProt P06276); experiment: biochemical; type: biochemical; conditions: for SI = Ki(AChE)/Ki(BChE): selectivity index
T1 construct: purified native human BChE; tissue gift of Dr Florian Nachon (IRBA, Brétigny-sur-Orge, France)
T1 sequence (P06276 29-602): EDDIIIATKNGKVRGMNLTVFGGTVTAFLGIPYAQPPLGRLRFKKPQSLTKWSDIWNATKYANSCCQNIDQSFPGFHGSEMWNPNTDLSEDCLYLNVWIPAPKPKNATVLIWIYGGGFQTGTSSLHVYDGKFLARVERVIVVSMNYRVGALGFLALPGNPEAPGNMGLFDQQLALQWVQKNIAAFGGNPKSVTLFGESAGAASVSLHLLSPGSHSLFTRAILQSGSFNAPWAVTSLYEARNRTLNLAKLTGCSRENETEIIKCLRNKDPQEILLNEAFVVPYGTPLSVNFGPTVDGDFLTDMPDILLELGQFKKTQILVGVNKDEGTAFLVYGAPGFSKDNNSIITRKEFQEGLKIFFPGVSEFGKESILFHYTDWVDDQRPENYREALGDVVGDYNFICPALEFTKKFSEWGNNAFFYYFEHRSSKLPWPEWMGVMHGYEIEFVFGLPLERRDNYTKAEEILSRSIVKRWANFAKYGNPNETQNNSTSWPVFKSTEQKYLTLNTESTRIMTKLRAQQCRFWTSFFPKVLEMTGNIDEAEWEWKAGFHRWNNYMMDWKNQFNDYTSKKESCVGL

[2] = ORAC assay (peroxyl radical antioxidant activity); conditions: benzoquinone 50 µM
Description: For the determination of antioxidant capacity by ORAC method, the commercially available OxiSelect™ Oxygen Radical Antioxidant Capacity (ORAC) Activity Assay kit was used (cat. no. STA-345, Cell Biolabs, Inc., San Diego, CA, USA).
The ability of benzoquinones to prevent excessive oxidation caused by ROS was tested using the commercially available OxiSelect™ Oxygen Radical Antioxidant Capacity (ORAC) Activity Assay kit (cat. no. STA-345, Cell Biolabs, Inc., San Diego, CA, USA), following the manufacturer’s protocol with slight adjustments concerning the antioxidant standard final concentrations. Stock solutions of benzoquinones were prepared in DMSO while 5 mM Trolox (used as an antioxidant standard) was provided by the manufacturer as a solution, and their further dilutions were carried out in 50% v/v acetone. Benzoquinones (50 µM) and Trolox (2.5–50 µM) were incubated with 1x Fluorescein Solution in 96-well black microplates at 37 °C for 30 min. After incubation time, Free Radical Initiator Solution was added. The sample reading was performed at 37 °C with an excitation wavelength of 480 nm and an emission wavelength of 520 nm. […] Net AUC values were compared to a Trolox standard curve and antioxidant capacity was presented as Trolox equivalent (TE) concentrations. All readouts were recorded on a plate reader (SpectraMax iD3, Molecular Devices, LLC, San Jose, CA, USA). Calculations were performed using the statistical package GraphPadPrism 8 (Graph Pad Inc, San Diego, CA, USA).
The ORAC assay was used to evaluate the ability of 1,4-benzoquinone derivatives to prevent oxidative damage caused by generation of ROS. In this assay, the quenching of the fluorescent probe (fluorescein) over time by the peroxyl radicals generated by the Free Radical Initiator Solution was monitored. Since the antioxidant capacity of benzoquinones correlates with the fluorescence decay, the peroxyl radical antioxidant activity of the selected compounds was determined by comparing the antioxidant standard curve of Trolox and was expressed as TE (Trolox equivalents)/µM [58].

[3] = target: T2, recombinant human AChE (Homo sapiens, UniProt P22303); experiment: Inhibition of AChE (modified Ellman method, Hunter–Downs evaluation); type: biochemical; conditions: for AChE type of inhibition (in words): according to Hunter–Downs plot; for times less potent as inhibitor of AChE than donepezil: compared to donepezil Ki of ref 50; for times less potent as inhibitor of AChE than galantamine: compared to galantamine Ki of ref 50; for fold higher AChE inhibition potency than meta position counterpart: para compounds 5 and 3 vs meta compounds 4 and 2; for AChE Ki: ATCh 0.05–0.50 mM
T2 construct: gift of Dr Florian Nachon (IRBA, Brétigny-sur-Orge, France)
T2 sequence (P22303 32-614): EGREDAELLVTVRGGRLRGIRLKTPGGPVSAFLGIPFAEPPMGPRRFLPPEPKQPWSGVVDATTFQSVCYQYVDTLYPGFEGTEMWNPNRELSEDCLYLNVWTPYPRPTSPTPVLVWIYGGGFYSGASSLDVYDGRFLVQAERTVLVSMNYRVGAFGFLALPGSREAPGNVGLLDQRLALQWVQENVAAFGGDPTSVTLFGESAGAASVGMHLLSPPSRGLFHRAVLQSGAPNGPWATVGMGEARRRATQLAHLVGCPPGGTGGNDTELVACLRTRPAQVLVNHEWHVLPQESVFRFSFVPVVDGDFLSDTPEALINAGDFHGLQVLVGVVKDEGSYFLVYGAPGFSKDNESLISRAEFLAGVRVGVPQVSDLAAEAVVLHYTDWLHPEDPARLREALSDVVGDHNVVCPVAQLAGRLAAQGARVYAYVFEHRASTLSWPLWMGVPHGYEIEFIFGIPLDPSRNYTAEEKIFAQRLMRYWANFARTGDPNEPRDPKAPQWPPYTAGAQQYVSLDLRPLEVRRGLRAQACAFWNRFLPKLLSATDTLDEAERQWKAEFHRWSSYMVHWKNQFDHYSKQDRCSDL
Description: All measurements of cholinesterase activity were performed in 0.1 M sodium phosphate buffer (pH 7.4). Acetylthiocholine (ATCh), used as a substrate, and thiol reagent 5,5′-dithiobis (2-nitrobenzoic acid) (DTNB) were purchased from Sigma–Aldrich, St. Louis, MO, USA. ATCh was dissolved in water and DTNB in sodium phosphate buffer. Stock solutions of compounds were prepared in DMSO (Gram-mol, Zagreb, Croatia), and all further dilutions were carried out in water. As the source of AChE and BChE, purified native human BChE and recombinant human AChE, both kindly provided by Dr Florian Nachon (Département de Toxicologie, Armed Forces Biomedical Research Institute (IRBA), Brétigny-sur-Orge, France), were used. Both enzymes were diluted in a phosphate buffer containing 0.1% BSA, while further dilutions were in a phosphate buffer with 0.01% BSA.
Enzyme activity measurements were carried out spectrophotometrically using a slightly modified Ellman method, as previously described. […] At least three inhibitor concentrations were used at each substrate concentration in at least three experiments. To calculate the enzyme inhibitor dissociation constants (Ki), the Hunter–Downs equation and the linear regression analysis were used:Ki,app = (vi∙i)/(v0 − vi) = Ki + Ki/KS s where Ki,app stands for the apparent inhibition constant and KS for the enzyme–substrate dissociation constant.
The final content of DMSO in measurements was up to 0.4%, and inhibitory reactions containing more than 0.1% of DMSO were corrected for control reactions containing a corresponding concentration of DMSO. No side interactions of the tested compounds with ATCh or DTNB were detected. Measurements were performed at 25 °C and wavelength λ = 412 nm on a Tecan Infinite M200Pro (Tecan Austria GmbH, Salzburg, Austria), and for all calculations, the statistical package GraphPadPrism 8 (Graph Pad Inc., San Diego, CA, USA) was used.
The selectivity index (SI) was determined using the following ratio: SI = Ki(AChE)/Ki(BChE).

[4] = target: T3, human recombinant β-secretase (BACE1) (Homo sapiens, UniProt P56817); experiment: Inhibition of BACE1 (spectrofluorimetric method); type: biochemical; conditions: 50 μM compound; three independent measurements ± SD
T3 construct: purchased Sigma Aldrich, St. Louis, MO, USA S4195
T3 sequence (P56817 46-501): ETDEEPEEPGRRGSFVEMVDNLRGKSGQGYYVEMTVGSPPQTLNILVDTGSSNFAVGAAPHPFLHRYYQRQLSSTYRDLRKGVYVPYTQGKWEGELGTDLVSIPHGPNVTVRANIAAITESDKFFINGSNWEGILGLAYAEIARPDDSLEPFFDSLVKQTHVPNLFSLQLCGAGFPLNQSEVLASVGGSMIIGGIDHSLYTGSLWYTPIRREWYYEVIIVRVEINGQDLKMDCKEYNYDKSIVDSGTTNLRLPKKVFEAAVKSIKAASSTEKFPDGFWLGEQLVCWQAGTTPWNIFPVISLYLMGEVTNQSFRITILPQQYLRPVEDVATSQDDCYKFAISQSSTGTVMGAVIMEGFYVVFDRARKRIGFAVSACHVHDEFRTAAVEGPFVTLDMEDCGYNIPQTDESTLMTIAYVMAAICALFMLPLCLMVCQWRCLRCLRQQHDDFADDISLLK
Description: For the determination of BACE1 activity, a human recombinant β-secretase (BACE1) (cat. no. S4195, Sigma Aldrich, St. Louis, MO, USA) as the source of the enzyme and 7-Methoxycoumarin-4-acetyl-[Asn670, Leu671]-Amyloid β/A4 Precursor Protein 770 Fragment 667–676(2,4-dinitrophenyl)Lys-Arg-Arg amide (cat. no. A1472, Sigma Aldrich, St. Louis, MO, USA) as the substrate were used. All measurements were conducted in 50 mM sodium acetate buffer (pH 4.5) with 0.005% Triton X-100. Commercially available β-secretase Inhibitor III (cat. no. 565780, EMD Millipore Corp., Billerica, MA, USA) was used as positive control.
BACE1 activity was determined using a slightly modified spectrofluorimetric method, as described in our previous work. Stock solutions of tested compounds were prepared in DMSO, and further dilutions were carried out in 50 mM sodium acetate buffer (pH 4.5) containing 0.005% Triton X-100. […] To eliminate any potential influence of benzoquinone and/or buffer on the intensity of fluorescence signal, non-enzymatic (buffer, substrate, and benzoquinones) and blank reactions (buffer and substrate only) were also measured and subtracted from inhibition and control reaction, respectively. As a positive control of BACE1 inhibition, commercially available β-secretase Inhibitor III (EMD Millipore Corp., Billerica, MA, USA) was used (5 µM), which inhibited over 90% of BACE1 activity, corresponding to the manufacturer’s data. All fluorescence signal readouts were recorded at room temperature (25 °C) at zero and two hours after incubation at 37 °C, on a plate reader (SpectraMax iD3, Molecular Devices, LLC, San Jose, CA, USA) with excitation at 320 nm and emission at 405 nm.

[5] = parameters: method as in doi:10.2298/JSC220304044D; conditions: previous study ref 56; cited from earlier work
[6] = FRAP assay (ferric-reducing antioxidant power); conditions: 50 and 100 μM
Text: All chemicals for FRAP antioxidant activity measurements were purchased from Sigma Aldrich (St. Louis, MO, USA), except for FeCl3 and tripyridyltriazine (TPTZ), which were purchased from Kemika, Zagreb, Croatia, and Fluka, Buchs, Switzerland, respectively.
A ferric-reducing antioxidant power (FRAP) assay was used to determine the antioxidant capacity of tested benzoquinones, following a slightly modified protocol by Benzie and Strain [41, 42]. The water-soluble derivative of vitamin E (Trolox) and butylated hydroxytoluene (BHT) were used as standard antioxidants. […] All absorbance readouts were recorded at 593 nm against a blank and corrected for the value of absorbance of corresponding benzoquinone alone. All measurements were performed in three independent experiments. FRAP values were calculated using a standard curve for FeSO4 × 7H2O. All readouts were recorded on a plate reader (SpectraMax iD3, Molecular Devices, LLC, San Jose, CA, USA).

[7] = 400 μM compound (maximum concentration used), 0.1 mM ATCh

CC(C)(C)C1=CC(=O)C=C(SCCc2ccccc2)C1=O [Compound 9]
Ki ([1]; read-out: BChE Ki): 25 ± 3 µM
SI = Ki(AChE)/Ki(BChE) [1]: 0.96
ORAC value, TE (Trolox equivalents) [2]: 5.2 ± 0.0 µM
AChE type of inhibition (in words) [3]: non-competitive
times less potent as inhibitor of AChE than donepezil [3]: ~1166
times less potent as inhibitor of AChE than galantamine [3]: about 54
Ki ([3]; read-out: AChE Ki): 24 ± 1 µM
inhibition at 50 µM [4]: 27.4%

COc1ccc(SC2=CC(=O)C=C(C(C)(C)C)C2=O)cc1 [Compound 8]
Ki ([1]; read-out: BChE Ki): 29 ± 3 µM
SI = Ki(AChE)/Ki(BChE) [1]: 2.9
ORAC value, TE (Trolox equivalents) [2]: 3.6 ± 0.6 µM
Ki ([3]; read-out: AChE Ki): 85 ± 5 µM

CC(C)(C)C1=CC(=O)C=C(Sc2ccc(O)cc2)C1=O [Compound 7]
Ki ([1]; read-out: BChE Ki): 23 ± 2 µM
SI = Ki(AChE)/Ki(BChE) [1]: 1.6
ORAC value, TE (Trolox equivalents) [2]: ≥50 µM
Ki ([3]; read-out: AChE Ki): 37 ± 4 µM
inhibition at 50 µM [4]: 16.7 ± 2.8%

CC(C)(C)C1=CC(=O)C=C(Sc2ccccc2)C1=O [Compound 6]
Ki ([1]; read-out: BChE Ki): 18 ± 4 µM
SI = Ki(AChE)/Ki(BChE) [1]: 7.6
Ki ([3]; read-out: AChE Ki): 136 ± 13 µM
DPPH antioxidant activity relative to ascorbic acid [5]: approximately twice as potent as ascorbic acid

CC(C)(C)C1=CC(=O)C(SC2CCCC2)=CC1=O [Compound 5]
Ki ([1]; read-out: BChE Ki): 5.2 ± 0.7 µM
SI = Ki(AChE)/Ki(BChE) [1]: 5.6
ORAC value, TE (Trolox equivalents) [2]: 11.0 ± 0.3 µM
AChE type of inhibition (in words) [3]: competitive
times less potent as inhibitor of AChE than donepezil [3]: ~1166
times less potent as inhibitor of AChE than galantamine [3]: about 54
fold higher AChE inhibition potency than meta position counterpart [3]: approximately 1.7
Ki ([3]; read-out: AChE Ki): 29 ± 5 µM
inhibition at 50 µM [4]: 11 ± 2%

CC(C)(C)C1=CC(=O)C=C(SC2CCCC2)C1=O [Compound 4]
Ki ([1]; read-out: BChE Ki): 30 ± 6 µM
SI = Ki(AChE)/Ki(BChE) [1]: 1.9
Ki ([3]; read-out: AChE Ki): 56 ± 8 µM

CC(C)(C)C1=CC(=O)C=C(Sc2ccc3ccccc3c2)C1=O [Compound 10]
Ki ([1]; read-out: BChE Ki): 37 ± 5 µM
SI = Ki(AChE)/Ki(BChE) [1]: 0.81
ORAC value, TE (Trolox equivalents) [2]: 9.3 ± 0.5 µM
AChE type of inhibition (in words) [3]: mixed-type
Ki ([3]; read-out: AChE Ki): 30 ± 3 µM
inhibition at 50 µM [4]: 26.2%

CNC1=CC(=O)C(C(C)(C)C)=CC1=O [Compound 12]
Ki ([1]; read-out: BChE Ki): 228 ± 56 µM
AChE inhibition ([3]; any of the tested concentrations): did not inhibit AChE

CC(C)(C)C1=CC(=O)C(N2CCC[C@H]2C(=O)O)=CC1=O [Compound 14]
Ki ([1]; read-out: BChE Ki): 36 ± 2 µM
SI = Ki(AChE)/Ki(BChE) [1]: 0.58
ORAC value, TE (Trolox equivalents) [2]: 19.7 ± 1.6 µM
times less potent as inhibitor of AChE than donepezil [3]: ~1166
times less potent as inhibitor of AChE than galantamine [3]: about 54
Ki ([3]; read-out: AChE Ki): 21 ± 1 µM
inhibition at 50 µM [4]: 10.1 ± 2%

CC(C)(C)C1=CC(=O)C=C(N[C@@H](Cc2ccccc2)C(=O)O)C1=O [Compound 15]
Ki ([1]; read-out: BChE Ki): 34 ± 2 µM
SI = Ki(AChE)/Ki(BChE) [1]: 1.7
ORAC value, TE (Trolox equivalents) [2]: 43.2 µM and 43.2 ± 1.6 µM
Ki ([3]; read-out: AChE Ki): 59 ± 5 µM
inhibition at 50 µM [4]: 15 ± 3.8%

CC(C)(C)C1=CC(=O)C=C(SCCO)C1=O [Compound 2]
Ki ([1]; read-out: BChE Ki): 33 ± 1 µM
SI = Ki(AChE)/Ki(BChE) [1]: 2.4
AChE type of inhibition (in words) [3]: mixed
Ki ([3]; read-out: AChE Ki): 80 ± 7 µM

CNC1=CC(=O)C=C(C(C)(C)C)C1=O [Compound 13]
BChE inhibitory activity [1, 7]: did not show any inhibitory activity
AChE inhibitory activity [3, 7]: did not show any inhibitory activity

CC(C)(C)C1=CC(=O)C=CC1=O [Compound 1, tert-butyl-1,4-benzoquinone]
Ki [1]: 55 ± 5 µM
SI = Ki(AChE)/Ki(BChE) [1]: 0.95
FRAP antioxidant activity compared to standard antioxidants Trolox and BHT [6]: approximately three times less potent than BHT
ORAC value, TE (Trolox equivalents) [2]: 16.7 ± 0.1 µM
Ki [3]: 52 ± 6 µM
DPPH antioxidant activity relative to ascorbic acid [5]: approximately twice as potent as ascorbic acid

CC(C)(C)C1=CC(=O)C(SCCO)=CC1=O [Compound 3]
Ki ([1]; read-out: BChE Ki): 8.8 ± 0.8 µM
SI = Ki(AChE)/Ki(BChE) [1]: 6.5
ORAC value, TE (Trolox equivalents) [2]: 23.9 ± 1.6 µM
fold higher AChE inhibition potency than meta position counterpart [3]: approximately 1.7
Ki ([3]; read-out: AChE Ki): 57 ± 4 µM
inhibition at 50 µM [4]: 5.7%

CC(C)(C)C1=CC(=O)C2=C(SCCS2)C1=O [Compound 11]
DPPH antioxidant activity relative to ascorbic acid [5]: approximately twice as potent as ascorbic acid
